# In ChEMBL document CHEMBL3885861, “Open TG-GATES”:
# Organism: Rattus norvegicus
# Assay: Open TG-GATES - Regimen: Daily Repeat
# Format: toxicity, organism-based, Sprague-Dawley
# Set-up: regimen Daily Repeat, gender Male, age 6 weeks
# Settings: in vivo, po, 300 mg/kg, […], route gavage, dose level High; for KIDNEY_L / KIDNEY_R / KIDNEY_TOTAL: tissue Kidney; for LIVER: tissue Liver; for A/G / ALP / ALT / AST / BUN / CRE / Ca / Cl / DBIL / GLC / IP / K / LDH / Na / PL / RALB / TBIL / TC / TG / TP / gamma-GTP: tissue Plasma
structure (smiles),measurement,setting,value
O=C(O)COc1nn(Cc2ccccc2)c2ccccc12 [BENDAZAC],Lym,"tissue Blood, time 28 day",83.2%
same,MCH,"tissue Blood, time 28 day",19.5 pg
same,MCHC,"tissue Blood, time 28 day",33.8%
same,MCV,"tissue Blood, time 28 day",57.8 fL
same,Mono,"tissue Blood, time 28 day",5.5%
same,Neu,"tissue Blood, time 28 day",10.8%
same,PT,"tissue Blood, time 28 day",13.5 s
same,Plat,"tissue Blood, time 28 day",114.5 x10_4/uL
same,RBC,"tissue Blood, time 28 day",760.5 x10_4/ul
same,Ret,"tissue Blood, time 28 day",3.2%
same,WBC,"tissue Blood, time 28 day",142.5 x10_2/uL
same,KIDNEY_L,time 7 day,1.2 g
same,KIDNEY_R,time 7 day,1.2 g
same,KIDNEY_TOTAL,time 7 day,2.3 g
same,KIDNEY_L,time 14 day,1.2 g
same,KIDNEY_R,time 14 day,1.2 g
same,KIDNEY_TOTAL,time 14 day,2.5 g
same,KIDNEY_L,time 28 day,1.6 g
same,KIDNEY_R,time 28 day,1.6 g
same,KIDNEY_TOTAL,time 28 day,3.2 g
same,LIVER,time 7 day,14.9 g
same,LIVER,time 14 day,17 g
same,LIVER,time 28 day,21.1 g
same,A/G,time 7 day,2
same,ALP,time 7 day,1331.4 IU/L
same,ALT,time 7 day,37 IU/L
same,AST,time 7 day,67.6 IU/L
same,BUN,time 7 day,19.6 mg/dL
same,CRE,time 7 day,0.5 mg/dL
same,Ca,time 7 day,11.1 mg/dL
same,Cl,time 7 day,105 meq/L
same,DBIL,time 7 day,0.022 mg/dL
same,GLC,time 7 day,196.8 mg/dL
same,IP,time 7 day,5.8 mg/dL
same,K,time 7 day,4.4 meq/L
same,LDH,time 7 day,115.8 IU/L
same,Na,time 7 day,141 meq/L
same,PL,time 7 day,121 mg/dL
same,RALB,time 7 day,3.8 g/dL
same,TBIL,time 7 day,0.8 mg/dL
same,TC,time 7 day,63.6 mg/dL
same,TG,time 7 day,55.2 mg/dL
same,TP,time 7 day,5.7 g/dL
same,gamma-GTP,time 7 day,1 IU/L
same,A/G,time 14 day,1.9
same,ALP,time 14 day,903.6 IU/L
same,ALT,time 14 day,36.6 IU/L
same,AST,time 14 day,60.8 IU/L
same,BUN,time 14 day,20.4 mg/dL
same,CRE,time 14 day,0.5 mg/dL
same,Ca,time 14 day,10.3 mg/dL
same,Cl,time 14 day,105.2 meq/L
same,DBIL,time 14 day,0.024 mg/dL
same,GLC,time 14 day,185.6 mg/dL
same,IP,time 14 day,5.3 mg/dL
same,K,time 14 day,4.2 meq/L
same,LDH,time 14 day,105.6 IU/L
same,Na,time 14 day,140.8 meq/L
same,PL,time 14 day,130.2 mg/dL
same,RALB,time 14 day,3.9 g/dL
same,TBIL,time 14 day,0.7 mg/dL
same,TC,time 14 day,62.4 mg/dL
same,TG,time 14 day,79.4 mg/dL
same,TP,time 14 day,6.1 g/dL
same,gamma-GTP,time 14 day,1.4 IU/L
same,A/G,time 28 day,1.6
same,ALP,time 28 day,768 IU/L
same,ALT,time 28 day,34 IU/L
same,AST,time 28 day,57 IU/L
same,BUN,time 28 day,20.2 mg/dL
same,CRE,time 28 day,0.6 mg/dL
same,Ca,time 28 day,9.9 mg/dL
same,Cl,time 28 day,103 meq/L
same,DBIL,time 28 day,0.0525 mg/dL
same,GLC,time 28 day,187 mg/dL
same,IP,time 28 day,5 mg/dL
same,K,time 28 day,4 meq/L
same,LDH,time 28 day,72 IU/L
same,Na,time 28 day,140 meq/L
same,PL,time 28 day,117 mg/dL
same,RALB,time 28 day,3.7 g/dL
same,TBIL,time 28 day,0.9 mg/dL
same,TC,time 28 day,54.8 mg/dL
same,TG,time 28 day,57.8 mg/dL
same,TP,time 28 day,6.2 g/dL
same,gamma-GTP,time 28 day,1.5 IU/L
